Results published in patent publication US9896441B2 (Lycera Corporation, priority 2014, dated 2018).

Key:
RORγ-LBD = molecular target: T1, RORγ-LBD (Homo sapiens, UniProt P51449); assay: RORγ-Ligand Binding Domain (LBD) TR-FRET Assay; type: biochemical; conditions: for TR-FRET Assay Max Response: maximum response;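 on TR-FRET Assay Max Response: 665/615 nm signal ratio set to 100 without ursolic acid or test compound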
T1 construct: made in house; host or cells: SF9 cells (baculovirus); used as diluted lysate
T1 sequence (P51449 269-508 limits assumed): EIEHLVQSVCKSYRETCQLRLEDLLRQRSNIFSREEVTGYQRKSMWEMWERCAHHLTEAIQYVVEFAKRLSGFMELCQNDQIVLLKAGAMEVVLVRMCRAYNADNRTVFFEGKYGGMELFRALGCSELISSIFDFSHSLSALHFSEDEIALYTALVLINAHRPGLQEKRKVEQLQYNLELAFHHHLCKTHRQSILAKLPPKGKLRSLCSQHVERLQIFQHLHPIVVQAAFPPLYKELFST
Procedure, shortened: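 Lysate from SF9 cells expressing His-RORγ-LBD is diluted to about 3 nM final in 50 mM Tris pH 7.0 assay buffer. A biotin-tagged SRC1 LXXLL peptide goes in at 200 nM final, plus ursolic acid at 2 μM final. Test compounds carry 1% DMSO final; signal read by TR-FRET.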

Gal4-RORγ-LBD = molecular target: T2, Gal4-RORγ-LBD (Homo sapiens, UniProt P51449); assay: Gal4-RORγ Luciferase Reporter Assay in HEK-293T Cells; type: cell-based; conditions: HEK-293 cells; for Gal4-RORγ Assay Max Response: maximum response
T2 construct: expressed in transfected cells
T2 sequence (P51449 269-508 limits assumed): T1 sequence (P51449 269-508 limits assumed)
Procedure, shortened: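 Max Response was taken as the upper plateau of a 4-parameter logistic fit of luciferase signal, normalized to 100 for wells without ursolic acid or compound. Transiently Gal4-RORγ-LBD/Gal4-luc transfected HEK-293 cells carrying […] ursolic acid were incubated with test compounds (0.2% DMSO) overnight at 37 °C and read with One-Glo.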

[1] = luciferase reporter, in presence of ursolic acid
[2] = luciferase reporter, with ursolic acid

| SMILES | EC50 (RORγ-LBD; RORγ-LBD TR-FRET assay) | TR-FRET Assay Max Response (RORγ-LBD; RORγ-LBD TR-FRET assay) | EC50 (Gal4-RORγ-LBD; [1]) | EC50 (RORγ-LBD; RORγ-LBD TR-FRET) | EC50 (Gal4-RORγ-LBD; [2]) | also measured |
| --- | --- | --- | --- | --- | --- | --- |
| C/C(=C\c1ccc2c(c1)N(S(=O)(=O)c1cccc(C(F)(F)F)c1)C[C@@H](N)C2)c1c(F)cccc1Cl [Example 166, (S,E)-7-(2-(2-Chloro-6-fluorophenyl)prop-1-en-1-yl)-1-((3-(trifluoromethyl)phenyl)sulfonyl)-1,2,3,4-tetrahydroquinolin-3-amine] | < 500 nM | *** (a value in the range of greater than 150 to 200) | 500 to 5000 nM |  |  | Gal4-RORγ Assay Max Response (Gal4-RORγ-LBD; [1]): ** (a value in the range of greater than 90 to 150) |
| CCOc1nn(CC)cc1S(=O)(=O)N1C[C@H](CCC(=O)OC)Oc2ccc(/C=C/c3ncccc3F)cc21 [Example 89X, (S,E)-methyl 3-(4-((3-ethoxy-1-ethyl-1H-pyrazol-4-yl)-sulfonyl)-6-(2-(3-fluoropyridin-2-yl)vinyl)-3,4-dihydro-2H-benzo[b][1,4]oxazin-2-yl)propanoate] |  |  |  | 500 to 5000 nM | > 10000 nM |  |
| CCOc1nn(CC)cc1S(=O)(=O)N1C[C@H](CCC(=O)O)Oc2ccc(/C=C/c3c(C)cccc3F)cc21 [Example 89AG, (S,E)-3-(4-((3-ethoxy-1-ethyl-1H-pyrazol-4-yl)sulfonyl)-6-(2-fluoro-6-methylstyryl)-3,4-dihydro-2H-benzo[b][1,4]-oxazin-2-yl)propanoic acid] |  |  |  | < 500 nM | < 500 nM |  |
| CCOc1nn(CC)cc1S(=O)(=O)N1C[C@H](CCC(=O)O)Oc2ccc(/C=C/c3ccccc3F)cc21 [Example 89AM, (S,E)-3-(4-((3-ethoxy-1-ethyl-1H-pyrazol-4-yl)sulfonyl)-6-(2-fluorostyryl)-3,4-dihydro-2H-benzo[b][1,4]oxazin-2-yl)propanoic acid] |  |  |  | < 500 nM | > 10000 nM |  |
| C/C(=C\c1ccc2c(c1)N(S(=O)(=O)c1cccc(C(F)(F)F)c1)C[C@H](CCNS(=O)(=O)C1CC1)O2)c1c(F)cccc1Cl [Example 116A, (S,E)-N-(2-(6-(2-(2-chloro-6-fluorophenyl)prop-1-en-1-yl)-4-((3-(trifluoro-methyl)phenyl)-sulfonyl)-3,4-dihydro-2H-benzo[b][1,4]oxazin-2-yl)ethyl)cyclopropane-sulfonamide] | < 500 nM | *** (a value in the range of greater than 150 to 200) | < 500 nM |  |  | Gal4-RORγ Assay Max Response (Gal4-RORγ-LBD; [1]): ** (a value in the range of greater than 90 to 150) |
| O=C(O)CC[C@H]1CN(S(=O)(=O)c2cccc(OC(F)F)c2)c2cc(/C=C/c3c(Cl)cccc3C(F)(F)F)ccc2O1 [Example 89DQ, (S,E)-3-(6-(2-chloro-6-(trifluoromethyl)styryl)-4-((3-(difluoromethoxy)phenyl)sulfonyl)-3,4-dihydro-2H-benzo[b][1,4]oxazin-2-yl)propanoic acid] |  |  |  | < 500 nM | < 500 nM |  |
| COC(=O)CC[C@H]1CN(S(=O)(=O)c2cccc(OC(F)F)c2)c2cc(/C=C/c3c(F)cccc3Cl)ccc2O1 [Example 89B, (S,E)-methyl 3-(6-(2-chloro-6-fluorostyryl)-4-((3-(difluoromethoxy)phenyl)sulfonyl)-3,4-dihydro-2H-benzo[b][1,4]oxazin-2-yl)propanoate] |  |  |  | < 500 nM | 500 to 5000 nM |  |
| O=C(O)CC[C@H]1CN(S(=O)(=O)c2cccc(C(F)(F)F)c2)c2cc(/C=C/c3c(Cl)cccc3C(F)F)ccc2O1 [Example 89EN, (S,E)-3-(6-(2-chloro-6-(difluoromethyl)styryl)-4-((3-(trifluoromethyl)phenyl)sulfonyl)-3,4-dihydro-2H-benzo[b][1,4]oxazin-2-yl)propanoic acid] |  |  |  | < 500 nM | < 500 nM |  |
| C/C(=C\c1ccc2c(c1)N(S(=O)(=O)c1cccc(C(F)(F)F)c1)C[C@H](CCNC(=O)C1CC1)O2)c1c(F)cccc1Cl [Example 113, (S,E)-N-(2-(6-(2-(2-Chloro-6-fluorophenyl)prop-1-en-1-yl)-4-((3-(trifluoromethyl)phenyl)sulfonyl)-3,4-dihydro-2H-benzo[b][1,4]oxazin-2-yl)ethyl)cyclopropanecarboxamide] | < 500 nM | *** (a value in the range of greater than 150 to 200) | < 500 nM |  |  | Gal4-RORγ Assay Max Response (Gal4-RORγ-LBD; [1]): ** (a value in the range of greater than 90 to 150) |
| CCn1cc(S(=O)(=O)N2C[C@H](CCC(=O)OC)Oc3ccc(/C=C(\C)c4c(F)cccc4Cl)cc32)c(Cl)n1 [Example 86H, (S,E)-methyl 3-(4-((3-chloro-1-ethyl-1H-pyrazol-4-yl)sulfonyl)-6-(2-(2-chloro-6-fluorophenyl)prop-1-en-1-yl)-3,4-dihydro-2H-benzo[b][1,4]oxazin-2-yl)propanoate] |  |  |  | < 500 nM | 500 to 5000 nM |  |
| C/C(=C\c1ccc2c(c1)N(S(=O)(=O)c1cccc(C(F)(F)F)c1)C[C@H](CO)O2)c1c(F)cccc1Cl [Example 125, (R,E)-(6-(2-(2-Chloro-6-fluorophenyl)prop-1-en-1-yl)-4-((3-(trifluoromethyl)phenyl)sulfonyl)-3,4-dihydro-2-h-benzo[b][1,4]oxazin-2-yl)methanol] | < 500 nM | *** (a value in the range of greater than 150 to 200) | < 500 nM |  |  | Gal4-RORγ Assay Max Response (Gal4-RORγ-LBD; [1]): ** (a value in the range of greater than 90 to 150) |
| O=C(O)CC[C@H]1CN(S(=O)(=O)c2cn(C3CC3)nc2OCCO)c2cc(/C=C/c3c(Cl)cccc3C(F)(F)F)ccc2O1 [Example 89EG, (S,E)-3-(6-(2-chloro-6-(trifluoromethyl)styryl)-4-((1-cyclopropyl-3-(2-hydroxyethoxy)-1H-pyrazol-4-yl)sulfonyl)-3,4-dihydro-2H-benzo[b][1,4]oxazin-2-yl)propanoic acid] |  |  |  | < 500 nM | 500 to 5000 nM |  |
| CCn1cc(S(=O)(=O)N2C[C@H]([C@@H](C)NS(C)(=O)=O)Oc3ccc(/C=C(\C)c4c(F)cccc4Cl)cc32)c(Cl)n1 [Example 104, N—((R)-1-((R)-4-((3-Chloro-1-ethyl-1H-pyrazol-4-yl)sulfonyl)-6-((E)-2-(2-chloro-6-fluorophenyl)prop-1-en-1-yl)-3,4-dihydro-2H-benzo[b][1,4]oxazin-2-yl)ethyl)methanesulfonamide] | < 500 nM | *** (a value in the range of greater than 150 to 200) | > 10000 nM |  |  |  |
| C/C(=C\c1ccc2c(c1)N(S(=O)(=O)c1ccc(F)c(OC(F)F)c1)C[C@H](CCC(=O)O)O2)c1c(F)cccc1Cl [Example 86AS, (S,E)-3-(6-(2-(2-chloro-6-fluorophenyl)prop-1-en-1-yl)-4-((3-(difluoromethoxy)-4-fluorophenyl)sulfonyl)-3,4-dihydro-2H-benzo[b][1,4]oxazin-2-yl)propanoic acid] |  |  |  | < 500 nM | < 500 nM |  |
| O=C(O)CC[C@H]1CN(S(=O)(=O)c2cccc(OC(F)F)c2)c2cc(/C=C/c3ncccc3Cl)ccc2O1 [Example 89DT, (S,E)-3-(6-(2-(3-chloropyridin-2-yl)vinyl)-4-((3-(difluoromethoxy)phenyl)sulfonyl)-3,4-dihydro-2H-benzo[b][1,4]-oxazin-2-yl)propanoic acid] |  |  |  | < 500 nM | 500 to 5000 nM |  |
| CCOc1nn(CC)cc1S(=O)(=O)N1CC(C(=O)O)Cc2ccc(OCc3c(F)cccc3Cl)cc21 (centres unmarked) |  |  |  |  |  | EC50 (RORγ-LBD; with 2 μM ursolic acid (RORγ antagonist), highest test concentration 10 μM): < 500 nM; EC50 (Gal4-RORγ-LBD; ursolic acid present, luciferase readout): > 10000 nM |
